The values that follow come from US5866775A, “Glyphosate-tolerant 5-enolpyruvyl-3-phosphoshikimate synthases” (Monsanto Company, priority 1990, dated 1999).

Bounds are passed on as bounds.

The target in experiment [1] is T1, pMON8252 encoded petunia EPSPS variant, glycine (101) to alanine and alanine (192) to threonine (Petunia hybrida, UniProt P11043, A264T/G173A).
T1 construct: alanine 192 in the mature petunia EPSP synthase; made in house; host or cells: E. coli SR481 (aroA-)
As to the kind of experiment: EPSP synthase kinetic constants (appKm PEP, appKi glyphosate). The experiment is classed as biochemical. Here is the method: The balance of the #742 preculture (~750 μl) was used to inoculate 2 ml of 2XYT medium containing 50 μg/ml carbenicillin and was shaken overnight at 37° C. to reach saturation. Plasmid DNA was isolated from an aliquot of the saturated culture using an alkaline lysis procedure. The plasmid was designated pMON8252. An aliquot of the pMON8252 plasmid was used to transform the E. coli host SR481 (described above) and reselected on MOPS medium containing 10 mM glyphosate and 50 μg/ml carbenicillin. A single glyphosate resistant colony of pMON8252 was picked off the selection plate and used to inoculate 3 ml of 2XY1 bacterial medium containing 50 μg/ml carbenicillin. The culture was then aerated on a rotating wheel at 37° C. until saturated and then used to inoculate a larger 250 ml culture. The large culture was grown to saturation by continuously shaking it overnight at 37° C. in a water bath. The bacterial cells were lysed and the extracts were assayed for EPSPS activity.
Specifically, the bacterial cell paste was washed twice with 0.9% saline, suspended in buffer (100 mM Tris-HCl, 5 mM benzamidine HCl) and passed twice through a French Pressure Cell at 1000 psi. The cell extract was separated from the cells by centrifuging at 15,000×gravity for 10 minutes at 5° C. It was desalted using Sephadex G-50 (Pharmacia, Piscataway, N.J.). The desalted extract was assayed for EPSP synthase activity as follows.
Kinetic constants (appKm PEP and appKi glyphosate) were determined for EPSP synthase as described below. Substrate kinetic parameters were determined at pH 7.9 in 50 mM HEPES (N-[2-hydroxyethyl]piperazine-N'-[2-ethanesulfonic acid]) buffer in the presence of 2 mM S3P and varying amounts of ^14 C-PEP (10 μM-400 μM), for 2.0 minutes at 25° C. Reactions were quenched with 100 mM NaAcetate in ethanol, pH 4.5, centrifuged and analyzed for product EPSP formation by HPLC with flow radioactivity detection. HPLC conditions were 0.35M KPi, pH 6.5, on a Synchropak AX100 column at 1.0 ml/minute.

In experiment [2] the test system is bacteria harboring pMON342 or pMON9566. Nature of the experiment: Glyphosate tolerance of bacteria expressing petunia EPSPS from the double pL promoter. It counts as cell-based, E. coli. The settings on record: either plasmid. On the procedure:
The double pL promoter used to express the petunia EPSP synthase in pMON342 and pMON9566 leads to a very high level of expression of the enzyme. The enzyme is present at such high concentration that bacteria harboring either of these plasmids are tolerant to very high levels of glyphosate (>5 mM) in growth media, even though the enzyme produced by pMON342 is the wild type form. […] A plasmid for identifying such a promoter was constructed as follows: pMON9544, the precursor to pMON342, was digested with BamHI to remove the pL promoters, and was recircularized by ligation resulting in pMON362. The EcoRI fragment of pMON9556 containing the 3'portion of the petunia EPSPS cDNA was then inserted into the EcoRI site of this plasmid reconstituting the entire coding sequence. The resulting plasmid, pMON364 is identical to pMON342 except that there is no promoter 5' of the EPSP synthase coding sequence.

The test system of experiment [3] is wildtype petunia plant or transformed with control vector (pMON505). As to the kind of experiment: Plant response to glyphosate spraying, control plants. The experiment is classed as in vivo. The settings on record: 0.8 #/acre acid equivalent (0.897 kg/hectare), isopropylamine salt, spray. On the procedure: Four individual representative transgenic seedlings were selected, grown and tested in the testing procedure described below, along with four individual non-transformed (wild-type) petunia seedlings.
The plants were grown in a growth medium in a growth chamber at 26° C. with 12 hours of light per day. The plants were fertilized weekly with a soluble fertilizer and watered as needed. The plants were sprayed at a uniform and reproducible delivery rate of herbicide by use of an automated track sprayer. The glyphosate solution used was measured as pounds of glyphosate acid equivalents per acre, mixed as the glyphosate isopropylamine salt, with an ionic surfactant.
Four individual wild-type (non-transformed) petunia plants were selected for use as control plants. Four individual transformed plants containing the pMON546 vector were selected by kanamycin resistance as described by Horsch, et al. (1985).
The control plants and the transformed plants were sprayed with the isopropylamine salt of glyphosate at the application level listed in Table 2 below; the experimental results obtained are also summarized in Table 2.

The subject of experiment [4] is tobacco plants transformed with wild-type EPSP synthase. As to the kind of experiment: Relative effect of glyphosate spray, WT plants. The experiment is classed as in vivo, Nicotiana tobacam CV H425. From the text:
A culture of A. tumefaciens cells containing pMON567/pGV3111-SE was co-cultured with leaf disks taken from tobacco plants (Nicotiana tobacam CV H425) as described by Horsch (1985). The Agrobacterium cells inserted the variant EPSP synthase gene into the chromosomes of the plant cells. Plant cells resistant to kanamycin were selected and regenerated into differentiated plants by the procedure of Horsch (1985).
Progeny of these plants were propagated and grown to a rosette diameter of about 10 cm corresponding to a plant age of about four weeks. The plants were sprayed with glyphosate at levels corresponding to 0.4, 2.0 and 3.6 pounds acid equivalent/acre. The effect of glyphosate on the transformed plants were scored at 7, 14 and 28 days. The effect was translated to a numerical scale of 0-10 in which 0 represents total kill and 10 is the normal, unsprayed plant. […] The values represent the best transformant for both wild-type EPSP synthase and glypho sate-tolerant EPSP synthase genes.

The test system of experiment [5] is tobacco, sugarbeet, tomato, soybean and cotton plants transformed with the variant EPSPS gene. Nature of the experiment: Glyphosate tolerance of other transformed plant species. Conditions: in vivo. The source says:
A gene encoding the variant EPSPS enzyme of the present invention having a glycine to alanine substitution at position 101 and an alanine to threonine substitution at position 192 of the mature EPSPS enzyme has also been introduced into other plant species such as tobacco, sugarbeet, tomato, soybean and cotton. […] In particular, the glycine to alanine and alanine to threonine substitutions of the present invention have been introduced into a genomic clone of the Arabidopsis EPSPS gene and this gene introduced into canola and tobacco plants using suitable plant transformation vectors.

T1 sequence (P11043 73-516 G173A/A264T): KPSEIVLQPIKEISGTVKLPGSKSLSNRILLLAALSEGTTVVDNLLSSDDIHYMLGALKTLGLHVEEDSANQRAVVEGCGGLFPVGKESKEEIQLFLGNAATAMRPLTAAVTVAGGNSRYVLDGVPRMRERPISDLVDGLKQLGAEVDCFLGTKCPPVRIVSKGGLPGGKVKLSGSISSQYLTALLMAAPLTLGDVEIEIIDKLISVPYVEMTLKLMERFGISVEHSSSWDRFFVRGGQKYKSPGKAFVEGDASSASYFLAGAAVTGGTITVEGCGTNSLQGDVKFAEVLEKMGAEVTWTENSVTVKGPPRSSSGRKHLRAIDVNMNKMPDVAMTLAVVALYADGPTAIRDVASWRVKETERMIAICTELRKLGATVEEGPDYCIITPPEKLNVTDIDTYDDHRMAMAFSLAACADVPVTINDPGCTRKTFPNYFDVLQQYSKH

As for `O=C(O)CNCP(=O)(O)O` [glyphosate, N-phosphonomethylglycine], the “Ki /Km ratio” value in experiment [1] (Ki glyphosate / Km PEP) was 12.6. The Ki for glyphosate in experiment [1] (versus PEP, extract of SR481 cells with pMON8252) was 683 µM. Besides, the “glyphosate level tolerated in growth media” value in experiment [2] was over 5 mM. Also, the “Visual Appearance” value in experiment [3] is given as “completely dead”. The “Relative Effect of Glyphosate (0 total kill, 10 no effect)” value in experiment [4] (0.4 pounds/acre (0.448 kg/hectare), day 7, best transformant) is 6.0; in experiment [4] (0.4 pounds/acre (0.448 kg/hectare), day 14, best transformant) it was 7.0; in experiment [4] (0.4 pounds/acre (0.448 kg/hectare), day 28, best transformant), 9.0; in experiment [4] (2.0 pounds/acre (2.242 kg/hectare), day 7, best transformant), 5.0; in experiment [4] (2.0 pounds/acre (2.242 kg/hectare), day 14, best transformant), 1.8; in experiment [4] (2.0 pounds/acre (2.242 kg/hectare), day 28, best transformant), 0.8. For the same molecule, the “Relative Effect of Glyphosate (0 total kill, 10 no effect)” value in experiment [4] (3.6 pounds/acre (4.035 kg/hectare), day 7, best transformant) is listed as 5.0; in experiment [4] (3.6 pounds/acre (4.035 kg/hectare), day 14, best transformant), 1.7; in experiment [4] (3.6 pounds/acre (4.035 kg/hectare), day 28, best transformant), 0.8. In addition, the “glyphosate tolerance of transformed plants” value in experiment [5] is “exhibited glyphosate tolerance”.
